Consider nine compounds from patent publication US12678440B2, “Compositions and methods for treating misfolded protein ocular disorders” (CASE WESTERN RESERVE UNIVERSITY, priority 2020, dated 2026).

For one assay, the system named is P23H rhodopsin. The assay can be described thus: Image-based (high-content imaging) assay in NIH3T3 (RHO^P23H/GFP) cells. The assay is classed as cell-based. The note with it: for pEC50 / Efficacy, Image-based assay NIH3T3 (RHO^P23H/GFP): 24 h; for pEC50: 8-10 doses, rhodopsin immunostaining; for Efficacy, Image-based assay NIH3T3 (RHO^P23H/GFP): DMSO 0%, secondary antibody only −100%. The source says:
Two NIH3T3 stable cell lines, NIH3T3 (RHO^WT/GFP) and NIH3T3 (RHO^P23H/GFP) were shared by Dr. Krzysztof Palczewski's lab who generated them by incorporating the […] DNA constructs to the NIH3T3 cells, respectively, via viral transduction (24, 33). GFP was co-expressed with rhodopsin for positive-clone selection. The expression of the WT and P23H rhodopsin protein was confirmed by immunoblots and immunostaining.
To assess the effect of active compounds on the clearance of P23H rhodopsin in mammalian cells, an image-based assay was performed using NIH3T3 (RHO^WT/GFP) and NIH3T3 (RHO^P23H/GFP) cells, as described previously. Briefly, cells were seeded at 5000 cells per well in 384-well plates and incubated at 37° C. in 5% CO2 for 4 hours until cells were attached to the bottom of the plate. Attached cells were treated with compounds for 24 hours. The assay medium was aspirated, and cells were fixed with 4% paraformaldehyde at 20 μL per well for 20 min at room temperature. Cell membranes were permeabilized with PBS containing 0.1% Triton X-100 (PBST) and then incubated with 50 µg/mL 1D4 anti-rhodopsin antibody at 15 μL/well for 1 hour at room temperature. After three washes with 50 μl/well of PBST, cells were incubated with 15 μL/well Cy3-conjugated goat anti-mouse IgG antibody for 1 hour at room temperature. After three washes with 50 μl/well of PBST, cells were incubated in 50 μl/well of PBS containing 2 μg/mL Hoechst 33342 to stain the nuclei. Finally, the immunostained cells were imaged by an ImageExpress High Content Imaging System (MolecularDevices). Immunofluorescence of rhodopsin was measured by MetaXpress software using the mean of total fluorescence of Cy3 channel per cell per well taken from five fields containing 600-1000 intact cells per well. After normalizing the fluorescence intensities of rhodopsin to the DMSO treated cells as 0% and cells immunostained with secondary antibody only as −100%, dose-response curves for each compound were plotted and fitted by a modified Hill function using the Origin software. The high-content imaging experiments for hit validation were performed at the CWRU drug discovery facility, and the high-content imaging analyses for the MTX co-treatment with BafA1 and MG-132 were undertaken at the University of Pittsburgh Drug Discovery Institute.

In another assay the test system is RHO transcripts. Description: qPCR of RHO transcripts in NIH3T3 (RHO^P23H/GFP) and NIH3T3 (RHO^WT/GFP) cells. The format is cell-based. The note with it: 10 μM, 24 h; for WT and P23H rhodopsin transcripts in comparison to DMSO control: both cell lines; for Rho mRNA level (qPCR): vs DMSO. The method, then:
NIH3T3 (RHO^WT/GFP) and NIH3T3 (RHO^P23H/GFP) cells were seeded in the 24-well plates at a density of 2.5×10^5 cells/well and cultured at 37° C. with 5% CO2 for overnight. Cells were then incubated with the culture medium containing compounds for 24 h. After aspirating the medium, cells were collected and lysed in 300 μL/well of TRIzol (ThermoFisher, 15596026, Waltham, MA USA) for 5 min. Samples were vigorously mixed with 60 μL chloroform for 30 s, then centrifuged at 12,000×g for 15 min at 4° C. The upper aqueous phase containing RNA was taken out and mixed with 150 μL isopropanol by vigorous shaking. After sedation for 10 min, samples were centrifuged at 12,000×g for 10 min at 4° C. The pellets were washed with 300 μL 75% ethanol and centrifuged at 7,500×g at 4° C. for 5 min. The RNA pellets were air-dried for 15 min and dissolved in 30 μL nuclease-free water (FisherScientific, BP2484-100, Houston, TX USA). The yield and purity of RNA were assessed by a NanoDrop spectrometer. The cDNAs was generated from 1 μg RNA using a High-Capacity RNA-to-cDNA Kit (ThermoFisher, 4387406, Waltham, MA USA). qPCR amplifications were performed using the PowerUp SYBR Green Master Mix (ThermoFisher, A25741, Waltham, MA USA) with the cDNA templates and primers, and the reaction was controlled by a QuantStudio 3 thermocycler (ThermoFisher, Waltham, MA USA). Primer sequences are as follows: RHO, forward 5′-CCCTTCTCCAACGTCACAGG-3′ (SEQ ID NO: 1), reverse 5′-TGAGGAAGTTGATGGGGAAGC-3′ (SEQ ID NO: 2); β-actin, forward 5′-ACCTTCTACAATGAGCTGCG-3′ (SEQ ID NO: 3), reverse 5′-CTGGATGGCTACGTACATGG-3′ (SEQ ID NO: 4).

The term pEC50 denotes the EC50 on a negative log10 scale, so that one unit is a factor of ten. High values mean a low EC50, low ones a high EC50.

pEC50: −log10 of the molar value.

Take `CC(=O)OC(CC(=O)[O-])C[N+](C)(C)C` (stereo not shown) [CL-001]: in the assay with P23H rhodopsin, the pEC50 is 5.68 and the “Efficacy, Image-based assay NIH3T3 (RHO^P23H/GFP)” value (from here on “Efficacy … (RHO^P23H/GFP)”) is −83.6%. In addition, in the assay on RHO transcripts, the “WT and P23H rhodopsin transcripts in comparison to DMSO control” value (“WT and P23H rhodopsin transcripts” below) is listed as “reduced non-selectively”; the “Rho mRNA level (qPCR)” value is on record as “Down”.

Consider `CC(=O)OC(CC(=O)O)C[N+](C)(C)C` (stereo not shown) [CL-002], for which, in the assay with P23H rhodopsin, the negative-log EC50 (pEC50) is 5.80 and the “Efficacy … (RHO^P23H/GFP)” value is reported as −61.0%. In the assay with RHO transcripts, the “WT and P23H rhodopsin transcripts” value is “reduced non-selectively”; the “Rho mRNA level (qPCR)” value is recorded as “Down”.

Turning to `O=C(O)C1=CC=CC(O)C1O` (stereo not shown) [CL-003], in the assay on P23H rhodopsin, the pEC50 is 6.22 and the “Efficacy … (RHO^P23H/GFP)” value was −46.1%. Moreover, in the assay on RHO transcripts, the “WT and P23H rhodopsin transcripts” value was “reduced non-selectively”; the “Rho mRNA level (qPCR)” value is listed as “Down”.

Turning to `CC(O)CN` (stereo not shown) [CL-004], in the assay with P23H rhodopsin, the pEC50 is 6.33 and the “Efficacy … (RHO^P23H/GFP)” value is reported as −70.7%. Moreover, in the assay on RHO transcripts, the “WT and P23H rhodopsin transcripts” value is “reduced non-selectively”; the “Rho mRNA level (qPCR)” value is recorded as “Down”.

Consider `NCC(=O)COP(=O)(O)O` [CL-005], for which, in the assay with P23H rhodopsin, the pEC50 is 5.89 and the “Efficacy … (RHO^P23H/GFP)” value is −72.7%. For the same compound, in the assay with RHO transcripts (both NIH3T3 (RHO^P23H/GFP) and NIH3T3 (RHO^WT/GFP) cells), the “increase of rhodopsin transcripts compared to DMSO control” value is recorded as “up to 2 fold”. The “Rho mRNA level (qPCR)” value in the assay on RHO transcripts is listed as “Up”.

For `O=C(NC1CCNCC1)c1n[nH]cc1NC(=O)c1c(Cl)cccc1Cl` [CL-006], in the assay with P23H rhodopsin, the pEC50 was 5.66 and the “Efficacy … (RHO^P23H/GFP)” value is given as −76.4%. In the assay with RHO transcripts, the “WT and P23H rhodopsin transcripts” value was “reduced non-selectively”; the “Rho mRNA level (qPCR)” value is “Down”.

As to `CCn1cnc2c(N)ncnc21` [CL-007], in the assay on P23H rhodopsin, the pEC50 was 5.54 and the “Efficacy … (RHO^P23H/GFP)” value is given as −72.7%. Besides, in the assay with RHO transcripts, the “WT and P23H rhodopsin transcripts” value is on record as “reduced non-selectively”; the “Rho mRNA level (qPCR)” value is given as “Down”.

Regarding `CCC(C)(O)C(O)C(=O)O` (stereo not shown) [CL-008], in the assay with P23H rhodopsin, the pEC50 is 5.80 and the “Efficacy … (RHO^P23H/GFP)” value is −70.1%. Further, in the assay on RHO transcripts, the “WT and P23H rhodopsin transcripts” value was “reduced non-selectively”; the “Rho mRNA level (qPCR)” value is “Down”.

As to `CN(Cc1cnc2nc(N)nc(N)c2n1)c1ccc(C(=O)N[C@@H](CCC(=O)O)C(=O)O)cc1` [CL-009, N-[4-[[(2,4-diamino-6-pteridinyl)methyl]methylamino]benzoyl]-L-glutamic acid], in the assay on P23H rhodopsin, the pEC50 was 5.48 and the “Efficacy … (RHO^P23H/GFP)” value was −36.0%. In the assay on P23H rhodopsin (listed as MTX), this compound gave a negative-log EC50 (pEC50) of roughly 5.48. Also, the “mean intensity of P23H rhodopsin immunostaining per cell” value in the assay on P23H rhodopsin (MTX alone, dose series) is “reduced in an MTX dose-dependent manner”. Moreover, in the assay with P23H rhodopsin (co-treatment 100 nM BafA1), the “MTX dose-dependent reduction of P23H rhodopsin immunostaining, co-treatment with BafA1” value is listed as “entirely abolished”. The “MTX dose-dependent reduction of P23H rhodopsin immunostaining, addition of MG-132” value in the assay on P23H rhodopsin (co-treatment 5 μM MG-132) is “not affected”. For the same compound, in the assay with RHO transcripts, the “WT and P23H rhodopsin transcripts” value is “did not affect the transcription”; the “Rho mRNA level (qPCR)” value was “No Change”.
